# Values quoted from earlier work as cited in patent EP2251003A2, “Ophthalmic Compositions for the Re-epithelialization, Healing and Disinfection of the Eye Tissues” (priority 2009, dated 2010).
# Where two headings read alike, the source gives them in different places.
# Tests used:
# eye of the rabbit [1] = settings: 5% ophthalmic solution, topical application
# fibroblast = settings: in vitro
# [2] = eyedrops containing dexpanthenol
# [3] = 1.5 g/kg/day administered for 90 days
# [4] = 1 g/kg/day, rat
# [5] = in vivo
# cornea of the rabbit = settings: administered to the cornea of the rabbit
# [6] = mouse
# [7] = rat, more recent studies
# [8] = 50 mg/kg/day administered orally to rats, subchronic
# eye of the rabbit [9] = settings: topical
# [10] = topical use, reported in the literature
compound,measurement,setting,value
CC(C)(CO)[C@@H](O)C(=O)NCCCO [dexpanthenol],extent and time of re-epithelialisation of the corneal endothelium,eye of the rabbit [1],significantly stimulated
same,fibroblast proliferation,fibroblast,activation of fibroblast proliferation
same,ocular tolerability,[2],excellent
"CS(C)(=O)=O [MSM, Methylsulphonylmethane]",toxic effect,[3],do not have any toxic effect
same,"toxic effects on fertility, gestation and neonatal development",[4],absence of toxic effects
same,absorption and urinary elimination,[5],rapid absorption and rapid urinary elimination
same,intraocular absorption of other substances,cornea of the rabbit,promotes intraocular absorption of disodium edetate and other substances
N=C(N)c1ccc(OCCCCCCOc2ccc(C(=N)N)cc2)cc1 [hexamidine diisethionate],intraperit. LD50,[6]; intraperitoneal,1060 mg/kg
same,oral LD Lo,[6]; oral,100 mg/kg
same,oral LD50,"[6]; oral, Toxicology and Applied Pharmacology 1975",280 mg/kg
same,"oral acute toxicity, expressed as LD50","[6]; oral, more recent studies",710 to 2500 mg/kg
same,"oral acute toxicity, expressed as LD50",[7],750 mg/kg
same,toxic effect,[8],did not show any toxic effect
same,eye irritation,eye of the rabbit [9]; aqueous solutions containing 0.10-0.11%,"slight, transient irritation"
same,eye irritation,eye of the rabbit [9]; concentration of 0.050%,no reaction
same,cases of sensitisation,[10],nine cases out of millions of subjects
